A short description of this test: binding affinity against sigma Opioid receptor was measured by using labeled ligand [3H]-SKF- 10,047 (1 nM).

Broadly, the pKi is the negative decadic logarithm of the Ki, by convention in mol/L.

pKi: −log10 of the molar value.

In turn, `COc1cccc2c1O[C@H]1[C@@H](O)CC[C@H]3CN(CC4CC4)CC[C@@]231` [(4aR,7S,7aR,12bS)-3-Cyclopropylmethyl-9-methoxy-2,3,4,4a,5,6,7,7a-octahydro-1H-8-oxa-3-aza-benzo[d]fluoren-7-ol] had a pKi of 6.39. To `O=C1CC[C@H]2CN(CC3CC3)CC[C@@]23c2cccc(O)c2O[C@@H]13` [(4aR,7aR,12bS)-3-Cyclopropylmethyl-9-hydroxy-2,3,4,4a,5,6-hexahydro-1H-8-oxa-3-aza-benzo[d]fluoren-7-one] belongs 6.15; to `Oc1cccc2c1O[C@H]1[C@@H](O)CC[C@H]3CN(CC4CC4)CC[C@@]231` [(4aR,7S,7aR,12bS)-3-Cyclopropylmethyl-2,3,4,4a,5,6,7,7a-octahydro-1H-8-oxa-3-aza-benzo[d]fluorene-7,9-diol], 6.24; to `COc1cccc2c1O[C@H]1C(=O)CC[C@H]3CN(CC4CC4)CC[C@@]231` [(4aR,7aR,12bS)-3-Cyclopropylmethyl-9-methoxy-2,3,4,4a,5,6-hexahydro-1H-8-oxa-3-aza-benzo[d]fluoren-7-one], 6.36.

Turning to `O=C1CC[C@@H]2CN(CC3CC3)CC[C@@]23c2cccc(O)c2O[C@@H]13` [(4aS,7aR,12bS)-3-Cyclopropylmethyl-9-hydroxy-2,3,4,4a,5,6-hexahydro-1H-8-oxa-3-aza-benzo[d]fluoren-7-one], the pKi is 6.51. To `Oc1cccc2c1O[C@H]1[C@H](O)CC[C@@H]3CN(CC4CC4)CC[C@@]231` [(4aS,7R,7aR,12bS)-3-Cyclopropylmethyl-2,3,4,4a,5,6,7,7a-octahydro-1H-8-oxa-3-aza-benzo[d]fluorene-7,9-diol] belongs 6.52.

As for `CN1CC[C@]23c4cccc(O)c4O[C@H]2C(=O)CC[C@H]3C1` [(4aR,7aR,12bS)-9-Hydroxy-3-methyl-2,3,4,4a,5,6-hexahydro-1H-8-oxa-3-aza-benzo[d]fluoren-7-one], the pKi is 5.68. The result for `Oc1cccc2c1O[C@H]1CCC[C@H]3CN(CC4CC4)CC[C@@]231` [(-)-trans-3-Cyclopropylmethyl-2,3,4,4aalpha,5,6,7,7aalpha-octahydro-1H-benzo[4,5]furo[3,2-e]isoquinolin-9-ol] reads 7.68.

The values above are taken from BindingDB's records for doi:10.1021/jm00045a017 (National Taiwan University, 1994).
